Laboratory results reported in patent US11225481B2 (Centre national de la recherche scientifique, priority 2015, dated 2022).

Biological target: T1, BRD4(BD1) (Homo sapiens, UniProt O60885)
T1 construct: a BRD4(BD1) synthetic gene that includes a TEV cleavage site was purchased from LifeTechnology; made in house
Assay: HTRF assay, disruption of bromodomain/histone peptide interaction
Assay type: binding
Conditions: HTRF; mean ± SD of three experiments; Table 2; read-out: IC50 μM, effect on BRD4(BD1) activity
Procedure: HTRF assays were performed in white 384 Well Small Volume™ HiBase Polystyrene Microplates (Greiner) with a total working volume of 20 μL. Compounds were dispensed, with 200 nL per well (1% final DMSO), from a concentration stock of 1 mM in 100% DMSO and with serial DMSO dilutions, using a Mosquito Crystal pipetting robot platform (TTP labtech). The IC50 measurements were performed in triplicates (Table 2 and 3). All HTRF reagents were purchased from CisBio Bioassays and reconstituted according to the supplier protocols. For each assay 14.7 μL of mix 1 (protein+peptide) is added in the assay wells, containing previously dispensed inhibitors, according to the final concentration and buffer described in Table 4, using a Biomek NX MC pipetting robot (Beckman). Then, 5.1 μL of mix 2 (donnor+acceptor) is added. HTRF signals were measured, after a final incubation (overnight at room temperature), using a PHERAstar FS (BMG Labtech) with an excitation filter at 337 nm and fluorescence wavelength measurement at 620 and 665 nm, an integration delay of 60 μs and an integration time of 500 μs. Results were analyzed with a two-wavelengths signal ratio: [intensity (665 nm)/intensity (620 nm)]*10^4. Percentage of inhibition was calculated using the following equation: % inhibition=[(compound signal)−(min signal)]/[(max signal)−(min signal)]*100, where ‘max signal’ is the signal ratio with the compound vehicle alone (DMSO) and ‘min signal’ the signal ratio without peptide.
For Isothermal Titration Calorimetry (ITC) and crystallogenesis, BRD4(BD1) was produced and purified using a histidine tag affinity chromatography as described by Filipakopoulos et al.9 For these experiments, a pNIC28-BSA4 expression vector containing BRD4(BD1) and a Tobacco Etch Virus (TEV) protease cleavage site have kindly been provided by Stefan Knapp laboratory from the SGC at the University of Oxford. After size exclusion chromatography, the fractions presenting pure BRD4(BD1) after TEV cleavage of the histidine tag were pooled and concentrated to 25 mg/mL for crystallogenesis. For ITC assays, the protein was concentrated up to at 6 mg/mL and the DTT was removed using a buffer exchange column (PD10 from GE healthcare) equilibrated with 10 mM HEPES pH=7.5, 150 mM NaCl. For Homogeneous Time Resolved Fluorimetry (HTRF) experiments, a BRD4(BD1) synthetic gene that includes a TEV cleavage site was purchased from LifeTechnology in a pDONR transport vector before cloning into a pDESTTM15 expression vector for GST affinity purification. Protein production and purification was carried out using similar protocols and buffers as used for the His-BRD4(BD1) system. Purification was carried on GST affinity resin (Thermo Scientific) and reduced glutathione was used for protein release. GST-BRD4(BD1) was further purified by size exclusion chromatography on a Superdex 16/60 Hiload column (GE Healthcare) using 20 mM TRIS pH=8.0, 150 mM NaCl Buffer.

IC50 [µM]	Structure (SMILES)
> 100	CCCCn1c(=O)[nH]c(=O)c2[nH]c(CO)nc21 [Compound 17a, 3-Butyl-8-hydroxymethylxanthine]
> 100	CCn1cnc2c1c(=O)nc(NC(=O)OC(C)(C)C)n2Cc1ccc(Cl)cc1 [Compound 8a]
69.6	CCCCn1c(=O)[nH]c(=O)c2c1nc(CSc1nc3nc(C)cc(C)n3n1)n2CC [Compound 24b]
< 100	CCn1c(Br)nc2c1c(=O)[nH]c(=O)n2Cc1ccc(Cl)cc1 [Compound 12b]
46.8	CCCCc1c(C)nc2nc(Sc3nc4c(c(=O)[nH]c(=O)n4Cc4ccc(Cl)cc4)n3CC)nn2c1C [Compound 31a]
> 100	CCn1cnc2[nH]c(NC(=O)OC(C)(C)C)nc(=O)c21 [Compound 3c]
52.5	CCn1cnc2c1c(=O)[nH]c(=O)n2C(C)C [Compound 5b]
> 100	Nc1nc2nc[nH]c2c(=O)[nH]1 [Compound 1a]
> 100	CCCCn1c(=O)[nH]c(=O)c2c1nc(CO)n2CCC [Compound 18b]
> 100	CCn1cnc2[nH]c(=O)[nH]c(=O)c21 [Compound 3a, 7-Ethylxanthine]
2.6	CCn1cnc2c1c(=O)[nH]c(=O)n2Cc1ccc(Br)cc1 [Compound 6c]
17.9	CCCCn1c(NC(=O)OC(C)(C)C)nc(=O)c2c1ncn2CC [Compound 7c]
100	CCCCc1c(C)nc2nc(SCc3nc4c(c(=O)[nH]c(=O)n4Cc4ccc(Cl)cc4)n3C)nn2c1C [Compound 27a]
> 100	CCn1cnc2c1c(=O)nc(N)n2Cc1ccc(Cl)cc1 [Compound 9a]
> 100	CCn1c(Br)nc2[nH]c(=O)[nH]c(=O)c21 [Compound 12a]
70.3	CCn1cnc2c1c(=O)[nH]c(=O)n2CC [Compound 5a]
> 100	CCCCn1c(=O)[nH]c(=O)c2c1nc(Sc1nc3nc(C)cc(C)n3n1)n2CC [Compound 28b, 3-Butyl-8-(5,7-dimethyl-[1,2,4]triazolo[1,5-a]pyrimidin-2-ylsulfanyl)-7-ethyl-3,7-dihydro-purine-2,6-dione]
> 100	CCCCn1c(=O)[nH]c(=O)c2c1nc(CSc1nc3ccccc3[nH]1)n2CC [Compound 22b]
> 100	CCn1cnc2c1c(=O)nc(NC(=O)OC(C)(C)C)n2C(=O)OC(C)(C)C [Compound 8b]
> 100	CCn1cnc2c1c(=O)[nH]c(=O)n2C [Compound 4c]
> 100	CCCCn1c(=O)[nH]c(=O)c2c1nc(Cl)n2CC [Compound 12c, 3-Butyl-8-chloro-7-ethylxanthine]
10.7	CCCCn1c(N)nc(=O)c2c1ncn2CC [Compound 8c]
59.6	CCCCc1c(C)nc2nc(CSc3nc4c(c(=O)[nH]c(=O)n4Cc4ccc(Cl)cc4)n3CC)nn2c1C [Compound 31b]
> 100	CCCCn1c(=O)[nH]c(=O)c2c1nc(CO)n2C [Compound 17c]
> 100	CCCCn1c(=O)[nH]c(=O)c2c1nc(CO)n2CC [Compound 18a, 3-Butyl-7-ethyl-8-hydroxymethylxanthine]
45.6	CCn1c(CSc2nc[nH]n2)nc2c1c(=O)[nH]c(=O)n2Cc1ccc(Cl)cc1 [Compound 21a]
> 100	O=c1[nH]c(=O)c2[nH]c(Br)nc2[nH]1 [Compound 11b]

IC50 [µM]	Structure (SMILES)
100	CCn1c(SC)nc2c1c(=O)[nH]c(=O)n2C [Compound 15c]
> 100	CCn1c(CSc2nc3ccccc3[nH]2)nc2c1c(=O)[nH]c(=O)n2Cc1ccc(Cl)cc1 [Compound 23a]
54	CCCCc1c(C)nc2nc(CSc3nc4c(c(=O)[nH]c(=O)n4CCCC)n3CC)nn2c1C [Compound 32a, 3-Butyl-8-(6-butyl-5,7-dimethyl-[1,2,4]triazolo[1,5-a]pyrimidin-2-ylmethylsulfanyl)-7-ethyl-3,7-dihydro-purine-2,6-dione]
> 100	CCn1cnc2[nH]c(N)nc(=O)c21 [Compound 1c, 7-ethylguanine]
> 100	Nc1nc2nc[nH]c2c(=S)[nH]1 [Compound 2a]
> 100	CCn1c(CO)nc2c1c(=O)[nH]c(=O)n2Cc1ccccc1 [Compound 18c]
> 100	CCCCn1c(=O)[nH]c(=O)c2c1nc(CCl)n2CC [Compound 19c, 3-butyl-8-chloromethyl-7-ethylxanthine]
> 100	Cn1cnc2nc(N)[nH]c(=O)c21 [Compound 1b]
> 100	O=C(O)CCSc1nc2c([nH]1)c(=O)[nH]c(=O)n2Cc1ccc(F)cc1 [Compound 16a]
> 100	CC(C)Cn1cnc2[nH]c(=O)[nH]c(=O)c21 [Compound 3b]
> 100	O=c1[nH]c(=O)n(Cc2ccc(Cl)cc2)c2nc(CO)[nH]c12 [Compound 17b]
< 100	CCn1c(S)nc2c1c(=O)[nH]c(=O)n2C [Compound 14c]
> 100	Cn1c(-c2ccc(Cl)cc2)nc2c1c(=O)[nH]c(=O)n2Cc1ccccc1 [Compound 10c]
> 100	CCn1c(Sc2nc3nc(C)cc(C)n3n2)nc2c1c(=O)[nH]c(=O)n2Cc1ccc(Cl)cc1 [Compound 29a]
> 100	Cn1cnc2[nH]c(=O)[nH]c(=O)c21 [Compound 2c]
2.6	CCn1cnc2c1c(=O)[nH]c(=O)n2Cc1ccc(C(C)(C)C)cc1 [Compound 7b]
> 100	O=c1[nH]c(=O)c2[nH]cnc2[nH]1 [Compound 2b, xanthine]
46.6	CCCCn1c(=O)[nH]c(=O)c2c1nc(CSc1nc3nc(CC)cc(CC)n3n1)n2CC [Compound 25b]
> 100	CCCCc1c(C)nc2nc(SCc3nc4c(c(=O)[nH]c(=O)n4Cc4ccc(Cl)cc4)n3CC(C)C)nn2c1C [Compound 28a]
> 100	CCn1c(CSc2cc3ccccc3[nH]2)nc2c1c(=O)[nH]c(=O)n2Cc1ccc(Cl)cc1 [Compound 24a]
18.3	CCc1cc(CC)n2nc(Sc3nc4c(c(=O)[nH]c(=O)n4Cc4ccc(Cl)cc4)n3CC)nc2n1 [Compound 30a]
> 100	O=c1[nH]c(=O)n(Cc2ccc(Cl)cc2)c2nc[nH]c12 [Compound 4a]
89.1	CCCCn1c(=O)[nH]c(=O)c2c1nc(CSc1n[nH]c(N)n1)n2CC [Compound 21b, 8-(5-Amino-1H-[1,2,4]triazol-3-ylsulfanylmethyl)-3-butyl-7-ethyl-3,7-dihydro-purine-2,6-dione]
> 100	CCCCn1c(=O)[nH]c(=O)c2c1nc(CSc1cc3ccccc3[nH]1)n2CC [Compound 23b]
> 100	CCn1cnc2c1c(=O)[nH]c(=O)n2CC(C)C [Compound 5c]
93.3	CCn1c(CO)nc2c1c(=O)[nH]c(=O)n2Cc1ccc(Cl)cc1 [Compound 19a]
> 100	O=c1[nH]c(=O)n(Cc2ccc(Cl)cc2)c2nc(Br)[nH]c12 [Compound 11c]

Structure (SMILES)	IC50 [µM]
CCCCn1c(=O)[nH]c(=O)c2c1nc(S)n2CC [Compound 15a, 3-butyl-7-ethyl-8-mercaptoxanthine]	35.1
